Measured values published in US20230372348A1, “LIPID FORMULATIONS OF TRIAZOLOQUINAZOLINONE COMPOUNDS” (Gabather AB, priority 2020, published 2023).

Columns and labels:
[1] = system: benzodiazepine site of the GABAA receptor complex; settings: cited from earlier work
[2] = Single ascending dose (SAD) study, pharmacokinetics in healthy male subjects; type: in vivo, human
Protocol: Lipid formulations containing PHOSAL® 53 MCT delivered higher exposure in rat and dog when compared to other formulation (e.g., nanosuspension formulation and PEG formulations). […] Formulation 1H containing 70% PHOSAL® 53 MCT and 30% Labrasol® ALF was selected for manufacturing of soft gelatin capsules for clinical trials with a drug formulation fill weight of 500 mg and a total capsule weight is 696 mg. Two dose strength (0.1 mg/subject and 2 mg/subject) and placebo were produced according to GMP for clinical testing.
The clinical development programme in healthy volunteers started with a double-blind, randomised, placebo controlled single ascending dose (SAD) study in males. Seven dose cohorts received increasing oral doses of Compound (1a) or placebo, dose range 0.05-2 mg. Each cohort consisted of 5-6 subjects receiving Compound (1a) and 2 subjects receiving placebo, with the primary objective to evaluate safety and tolerability, the secondary objective being evaluation of pharmacokinetics (PK).
A summary of PK results from the SAD study are shown below in Table 8.

[3] = Single dose pharmacokinetic evaluation of formulations in male Sprague Dawley rats; type: in vivo; settings: plasma, iv, rat
Protocol: Single dose pharmacokinetic evaluations of formulations F12-F22 were carried out using male Sprague Dawley rats using conditions as described in Table 1.
Animal ID's were labelled by pen marks on tail and body weight was recorded for calculation of test item volume before administration. Blood was collected capillary from vena saphena from the rats in EDTA coated collection tubes and centrifuged for five minutes at 2000G. Plasma was transferred to pre-labelled Eppendorf tubes and immediately stored in −20° C. The pharmacokinetic analysis was performed using PK Solutions 2.0™, Noncompartmental Pharmacokinetic Data Analysis software.
Cmax (nM) is the maximum concentration. AUC 0-24 (nM*h) is the area under the curve over 24 hours. Tmax (h) is the maximum time in hours. F % is bioavailability. Frel % is the relative bioavailability.

- dose proportionality of Cmax ([2]; dose range 0.05 mg-2 mg): dose proportional
- dose proportionality of exposure ([2]; dose range 0.05 to 2 mg, oral soft gelatin capsules, fasting healthy male volunteers): close to dose proportional
- bioavailability ([3]; intravenously 1 mg/kg (reference), read-out: F % (bioavailability)): 100%
- AUC(0-t) ([3]; intravenously 1 mg/kg, read-out: AUC 0-24): 1.18 µM·h
Structure (SMILES): Cc1ccc(-n2nc3c4cc(Cc5ccccc5)ccc4[nH]c(=O)n3c2=O)cc1 [Compound (1a), 9-benzyl-2-(4-methylphenyl)-2,6-dihydro[1,2,4]triazolo[4,3-c]quinazoline-3,5-dione]
- selectivity [1]: selective for the GABAA receptor complex
- inhibition of 3H-Flumazenil binding ([1]; rat membrane preparations): very potent inhibitor
- potency in displacing 3H-Flumazenil relative to diazepam ([1]; rat membrane preparations, more potent than diazepam): 10 times
